# Values quoted from earlier work in paper PMC11062894, “Protein-based bandpass filters for controlling cellular signaling with chemical inputs” (Nature Chemical Biology, 2023).
# Biological target: BclXL
# Conditions: cited from earlier work
smiles,measurement,value
CN(C)CC#Cc1ccc(OCCCc2sc(N3CCc4cccc(C(=O)Nc5nc6ccccc6s5)c4C3)nc2C(=O)O)c(F)c1 [A-1155463],Kd,< 0.01 nM
